The results in this text go back to paper PMC10675785, “(L)-Monomethyl Tyrosine (Mmt): New Synthetic Strategy via Bulky ‘Forced-Traceless’ Regioselective Pd-Catalyzed C(sp^2)–H Activation” (Pharmaceuticals, 2023).

The target of this assay is human NOP receptor (Homo sapiens, UniProt P41146). The assay can be described thus: Calcium mobilization assay in CHO cells stably coexpressing the NOP receptor and the Gαqi5 chimeric G protein. Conditions: CHOhNOP + Gαqi5 cells; Fluo-4 AM, FlexStation II, 37 °C; four-parameter logistic fit; mean of 5 or at least 6 experiments in duplicate.
human NOP receptor, sequence (P41146 whole entry): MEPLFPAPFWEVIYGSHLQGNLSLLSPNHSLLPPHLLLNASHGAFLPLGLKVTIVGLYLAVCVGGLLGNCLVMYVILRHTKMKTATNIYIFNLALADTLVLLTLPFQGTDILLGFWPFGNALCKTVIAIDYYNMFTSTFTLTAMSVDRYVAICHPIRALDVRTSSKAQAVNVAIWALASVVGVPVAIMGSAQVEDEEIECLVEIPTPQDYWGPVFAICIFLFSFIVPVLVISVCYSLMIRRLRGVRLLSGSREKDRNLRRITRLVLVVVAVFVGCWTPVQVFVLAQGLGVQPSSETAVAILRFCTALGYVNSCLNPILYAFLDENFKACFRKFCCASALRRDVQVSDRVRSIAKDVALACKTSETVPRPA

Description: Drugs and reagents: The reagents used were purchased from Sigma-Aldrich (St. Louis, MO, USA) and Thermo Fisher Scientific (Waltham, MA, USA). […] Concentrated solutions of ligands were made in distilled water (1 mM) and kept at −20 °C until use. Successive dilutions of ligands were made in Hank’s Balanced Salt Solution (HBSS) and HEPES buffer (containing 0.005% Bovine Serum Albumine (BSA)).
Cell Culture: Chinese Hamster Ovary (CHO) cells stably coexpressing the NOP opioid receptors and the Gαqi5 protein were used. […]
Calcium Mobilization Assay: Calcium mobilization studies were performed using the automated fluorometer microplate reader FlexStation II (Molecular Devices, Sunnyvale, CA, USA), which was employed to detect changes in fluorescence intensity. […] After placing both plates (cell culture and compound plate) into the fluorometric imaging plate reader FlexStation II, fluorescence changes were measured. […] Maximum change in fluorescence, expressed as percent over the baseline fluorescence, was used to determine agonist response.
Data analysis and terminology: All data were analyzed using Graph Pad Prism 6.0 (La Jolla, CA, USA). […] Data were expressed as mean ± sem of 5 experiments performed in duplicate. Agonist effects were expressed as the maximum change in percent over the baseline fluorescence. Baseline fluorescence was measured in wells treated with vehicles. […]

Consider [Dmt^1]N/OFQ(1-13)-NH2, for which the “pEC50 (CL95%)” value was 8.35 (7.94–8.77).
